# Experimental data as given in patent US20130324493A1, “COMPOSITIONS COMPRISING NINGNANMYCIN AND USES THEREFOR” (North Carolina State University, priority 2012, published 2013).
# Read-outs that look alike come from different tables or passages of the source.
# Assays:
# rat [1] = conditions: Trinity 1.69SC MSDS; cited from earlier work
# honey bee = conditions: cited from earlier work
# guinea pig = conditions: in vivo; cited from earlier work
# green algae = conditions: in vivo; cited from earlier work
# Oncorhynchus mykiss = conditions: cited from earlier work
# rabbit [2] = conditions: in vivo; cited from earlier work
# anthracnose (C. cereale) = assay: Field efficacy test, control of anthracnose on putting green turf; type: in vivo, 'Dominant Plus' creeping bentgrass; conditions: Trinity 1.69SC 0.32 ml/m^2, 14 d interval; for Turf quality: 1-to-9 scale (9 = best), anthracnose trial
# rabbit [3] = conditions: in vivo; cited from earlier work; remark: listed apart in the source
# Colletotrichum cereale = assay: In vitro sensitivity assay (radial growth on fungicide-amended PDA); type: cell-based
# Method: (§1) Three isolates of S. homoeocarpa and two isolates of C. cereale were selected to evaluate ningnanmycin (Ningnanmycin 10WP, Deqiang Biological Co., LTD. Harbin, Helongjiang, China) in vitro activities using 5 three-fold dilutions from 0.81 to 0.01 μg a.i./ml. […] Based on preliminary experiments, five dilutions of triticonazole were used, ranging from 0.81 to 0.01 μg a.i/ml for isolates of S. homoeocarpa and from 6.25 to 0.01 μg a.i./ml for isolates of C. cereale. All isolates were prepared for long-term storage on pieces of dried filter paper maintained at −80° C. Filter paper sections containing each isolate were removed from −80° C. storage and placed on PDA amended with 0.05 μg/ml each of chloramphenicol, streptomycin, and tetracycline (PDA+++). After 3 days, mycelium-containing plugs (1×1 cm) were transferred to water agar for another 2 days. Then, water agar plugs (0.45 cm diameter) were cut from the periphery of the colony using a cork borer and placed on the center of Petri dishes containing non-amended PDA and PDA amended with the serial concentrations of each fungicide with three replicates per isolate. Radial growth was measured after three days (72 h) incubation at room temperature for isolates of S. homoeocarpa and seven days for isolates of C. cereale. Relative Growth (RG) was calculated by dividing colony diameter on amended PDA by that on the non-amended PDA. EC50 values were then calculated using the method described by Secor et al. (Fungicide resistance assays for fungal plant pathogens. Methods Mol Biol. 835:385-392, 2012). The in vitro sensitivity assay repeated twice and EC50 value of each isolates was determined as the mean of EC50 values from two assays.
# Sclerotinia homoeocarpa = assay: as above; type: cell-based; conditions: Clarireedia homoeocarpa
# Method: as §1
# Lepomis macrochirus = conditions: cited from earlier work
# rat [4] = conditions: cited from earlier work
smiles,measurement,setting,value
"CC1(C)CCC(=Cc2ccc(Cl)cc2)C1(O)Cn1cncn1 (stereo not shown) [triticonazole, reference compound]",Acute toxicity Oral LD50,rat [1],">5,000 mg/kg"
same,"Non-mammals, honey bee",honey bee,1.87 μg/bee
same,Sensitization,guinea pig,no
same,Aquatic plants EC50,green algae,>1 mg/L (96 h)
same,Fish LC50 (96 h),Oncorhynchus mykiss,>3.6 µg/mL
same,Irritation to skin,rabbit [2],moderately irritating
same,Turf quality,"anthracnose (C. cereale); Aug. 8, 2010",5
same,Turf quality,"anthracnose (C. cereale); Aug. 15, 2010",5
same,Anthracnose severity (%),"anthracnose (C. cereale); Aug. 1, 2011",17%
same,Anthracnose severity (%),"anthracnose (C. cereale); Aug. 8, 2011",3%
same,Anthracnose severity (%),"anthracnose (C. cereale); Aug. 15, 2011",12%
same,Anthracnose severity (%),"anthracnose (C. cereale); Jul. 25, 2011",16%
same,Irritation to eye,rabbit [3],slightly irritating
same,EC50,"Colletotrichum cereale; 168 h, isolate ABR1, radial growth after seven days, mean of two assays, read-out: EC50",1.24 µg/mL
same,EC50,"Colletotrichum cereale; 168 h, isolate ABR12, radial growth after seven days, mean of two assays, read-out: EC50",0.72 µg/mL
same,EC50,"Colletotrichum cereale; mean of two isolates, read-out: mean EC50",0.98 µg/mL
same,EC50,"Sclerotinia homoeocarpa; 72 h, isolate 761SHME, radial growth after 72 h, mean of two assays, Ningnanmycin 10WP / technical triticonazole, μg a.i./ml, read-out: EC50",0.05 µg/mL
same,EC50,"Sclerotinia homoeocarpa; 72 h, isolate LWC 27, radial growth after 72 h, mean of two assays, read-out: EC50",0.06 µg/mL
same,EC50,"Sclerotinia homoeocarpa; 72 h, isolate PST4, radial growth after 72 h, mean of two assays, read-out: EC50",0.03 µg/mL
same,EC50,"Sclerotinia homoeocarpa; mean of three isolates, read-out: mean EC50",0.05 µg/mL
same,Fish LC50 (96 h),Lepomis macrochirus,>8.9 mg/L (Lepomis
same,Acute toxicity Dermal LD50,rat [4],">2,000/mg/kg"
